Assay results published in PubChem BioAssay AID248 (DTP/NCI, 2004).
Several values for one entry are separate records, joined by “and”; a condition that tells them apart may be missing. Equal values may be shown once. Inconclusive results and toxic doses are left out. No stated cut-off is given here; in the data, active means T/C of 150% or more; inactive means T/C below 125%.

Tested on: L1210 leukemia ip in BDF1 mice, survival T/C
Assay: NCI In Vivo Anticancer Drug Screen. Data for tumor model L1210 Leukemia (intraperitoneal) in B6D2F1 (BDF1) mice
Settings: endpoint: mean survival time, higher = longer survival
In short: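 Read-out is survival time, reported as the treated-group measurement over the vehicle-control measurement.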

[1] = dose: 100.0 mg/kg/injection, schedule: Q01DX001 (ip), vehicle: carboxymethylcellulose (CMC)
[2] = dose: 200.0 mg/kg/injection, schedule: Q01DX001 (ip), vehicle: carboxymethylcellulose (CMC)
[3] = dose: 400.0 mg/kg/injection, schedule: Q01DX001 (ip), vehicle: carboxymethylcellulose (CMC)
[4] = dose: 25.0 mg/kg/injection, schedule: Q04DX003 (ip), vehicle: saline with Tween-80
[5] = dose: 50.0 mg/kg/injection, schedule: Q01DX009 (ip), vehicle: saline with Tween-80
[6] = dose: 50.0 mg/kg/injection, schedule: Q04DX003 (ip), vehicle: saline with Tween-80
[7] = dose: 100.0 mg/kg/injection, schedule: Q04DX003 (ip), vehicle: saline with Tween-80
[8] = dose: 100.0 mg/kg/injection, schedule: Q01DX009 (ip), vehicle: Klucel (hydroxypropylcellulose) (HPC)
[9] = dose: 200.0 mg/kg/injection, schedule: Q01DX009 (ip), vehicle: Klucel (hydroxypropylcellulose) (HPC)
[10] = dose: 400.0 mg/kg/injection, schedule: Q01DX009 (ip), vehicle: Klucel (hydroxypropylcellulose) (HPC)
[11] = dose: 200.0 mg/kg/injection, schedule: Q04DX003 (ip), vehicle: saline with Tween-80

Measured: T/C

COc1cc([N+](=O)[O-])c2[nH]c(=O)ccc2c1
inactive: [1] 97 % of control | [2] 94 % of control | [3] 97 % of control

NC(=O)c1ccccc1OCc1ccccc1
inactive: dose: 75.0 mg/kg/injection, schedule: Q04DX003 (ip), vehicle: Klucel (hydroxypropylcellulose) (HPC) 97 % of control | dose: 150.0 mg/kg/injection, schedule: Q04DX003 (ip), vehicle: Klucel (hydroxypropylcellulose) (HPC) 99 % of control | dose: 300.0 mg/kg/injection, schedule: Q04DX003 (ip), vehicle: Klucel (hydroxypropylcellulose) (HPC) 91 % of control

COc1cc(C2NC(=S)NC2=S)ccc1O (stereo not drawn)
inactive: dose: 25.0 mg/kg/injection, schedule: Q01DX009 (ip), vehicle: saline with Tween-80 104 % of control | [4] 94 % of control | [5] 96 % of control | [6] 92 % of control | [7] 94 % of control and 98 % of control

Nc1cccc2c1[nH]c(=O)c1ccccc12
inactive: [1] 95 % of control | [2] 97 % of control | [3] 97 % of control

N#CCCN(C(=S)Nc1ccc(Cl)c(Cl)c1)C1CCCCC1
inactive: [8] 107 % of control | [9] 113 % of control | [10] 103 % of control

CCOC(=O)c1ccc(OC(=O)Nc2ccc(Cl)cc2OC)cc1
inactive: dose: 100.0 mg/kg/injection, schedule: Q01DX009 (ip), vehicle: saline 87 % of control | dose: 200.0 mg/kg/injection, schedule: Q01DX009 (ip), vehicle: saline 100 % of control

[N-]=Cc1c(O)cccc1[N+](=O)[O-].[N-]=Cc1cc([N+](=O)[O-])ccc1O.[Ni+2]
inactive: dose: 12.5 mg/kg/injection, schedule: Q04DX003 (ip), vehicle: saline with Tween-80 95 % of control | [4] 98 % of control | [6] 95 % of control | [7] 92 % of control | [11] 86 % of control

C[N+]1=C(/C=C/c2ccc(O)c3ncccc23)C(C)(C)c2ccccc21
inactive: dose: 7.5 mg/kg/injection, schedule: Q01DX009 (ip), vehicle: saline 93 % of control | dose: 12.5 mg/kg/injection, schedule: Q01DX001 (ip), vehicle: saline 106 % of control | dose: 15.0 mg/kg/injection, schedule: Q01DX009 (ip), vehicle: saline 109 % of control | dose: 25.0 mg/kg/injection, schedule: Q01DX001 (ip), vehicle: saline 101 % of control | dose: 30.0 mg/kg/injection, schedule: Q01DX009 (ip), vehicle: saline 104 % of control | dose: 50.0 mg/kg/injection, schedule: Q01DX001 (ip), vehicle: saline 113 % of control | dose: 60.0 mg/kg/injection, schedule: Q01DX009 (ip), vehicle: saline 101 % of control | dose: 100.0 mg/kg/injection, schedule: Q01DX001 (ip), vehicle: saline 92 % of control and 117 % of control | dose: 200.0 mg/kg/injection, schedule: Q01DX001 (ip), vehicle: saline 112 % of control

CC(=O)OC12CC3(C)CC(C)(C1)CC(OC(C)=O)(C3)C2
inactive: dose: 100.0 mg/kg/injection, schedule: Q04DX002 (ip), vehicle: saline 113 % of control | dose: 200.0 mg/kg/injection, schedule: Q04DX002 (ip), vehicle: saline 90 % of control | dose: 400.0 mg/kg/injection, schedule: Q04DX002 (ip), vehicle: saline 113 % of control

CC(=O)OCC(=O)[C@@]1(O)CC[C@H]2[C@@H]3C[C@H](C)C4=CC(=O)C=C[C@]4(C)[C@@]3(Br)[C@@H](O)C[C@@]21C
inactive: dose: 50.0 mg/kg/injection, schedule: Q01DX001 (sc), vehicle: steriod suspending solution 101 % of control | dose: 100.0 mg/kg/injection, schedule: Q01DX001 (sc), vehicle: steriod suspending solution 109 % of control | dose: 200.0 mg/kg/injection, schedule: Q01DX001 (sc), vehicle: steriod suspending solution 106 % of control | dose: 400.0 mg/kg/injection, schedule: Q01DX001 (sc), vehicle: steriod suspending solution 104 % of control

C=CCC1(C(=C)C)C(=O)NC(=S)NC1=O
inactive: dose: 75.0 mg/kg/injection, schedule: Q01DX001 (ip), vehicle: carboxymethylcellulose (CMC) 95 % of control | dose: 75.0 mg/kg/injection, schedule: Q01DX001 (ip), vehicle: saline 91 % of control | dose: 150.0 mg/kg/injection, schedule: Q01DX001 (ip), vehicle: carboxymethylcellulose (CMC) 105 % of control | dose: 150.0 mg/kg/injection, schedule: Q01DX001 (ip), vehicle: saline 102 % of control

CNC(=S)N(C)c1ccccc1
inactive: dose: 100.0 mg/kg/injection, schedule: Q04DX002 (ip), vehicle: Klucel (hydroxypropylcellulose) (HPC) 100 % of control | dose: 200.0 mg/kg/injection, schedule: Q04DX002 (ip), vehicle: Klucel (hydroxypropylcellulose) (HPC) 107 % of control | dose: 400.0 mg/kg/injection, schedule: Q04DX002 (ip), vehicle: Klucel (hydroxypropylcellulose) (HPC) 104 % of control

O=C1C=CC(=O)C2=C1C1c3ccccc3C2([N+](=O)[O-])c2ccccc21
inactive: [8] 100 % of control | dose: 100.0 mg/kg/injection, schedule: Q04DX003 (ip), vehicle: Klucel (hydroxypropylcellulose) (HPC) 105 % of control | [9] 92 % of control | dose: 200.0 mg/kg/injection, schedule: Q04DX003 (ip), vehicle: Klucel (hydroxypropylcellulose) (HPC) 97 % of control | dose: 200.0 mg/kg/injection, schedule: Q04DX003 (ip), vehicle: saline 97 % of control | [10] 100 % of control | dose: 400.0 mg/kg/injection, schedule: Q04DX003 (ip), vehicle: Klucel (hydroxypropylcellulose) (HPC) 102 % of control | dose: 400.0 mg/kg/injection, schedule: Q04DX003 (ip), vehicle: saline 102 % of control

CCCC[P+](CC(C)(C)c1ccc(C)cc1)(c1ccccc1)c1ccccc1
inactive: dose: 1.56 mg/kg/injection, schedule: Q04DX002 (ip), vehicle: saline 96 % of control | dose: 3.13 mg/kg/injection, schedule: Q04DX002 (ip), vehicle: saline 104 % of control | dose: 6.25 mg/kg/injection, schedule: Q04DX002 (ip), vehicle: saline 100 % of control | dose: 12.5 mg/kg/injection, schedule: Q04DX002 (ip), vehicle: saline 96 % of control | dose: 100.0 mg/kg/injection, schedule: Q04DX002 (ip), vehicle: saline with Tween-80 103 % of control

O=C1N(Cl)C(=O)C(c2ccc(C(F)(F)F)cc2)(c2ccc(C(F)(F)F)cc2)N1Cl
inactive: [5] 88 % of control | dose: 100.0 mg/kg/injection, schedule: Q01DX009 (ip), vehicle: saline with Tween-80 100 % of control | [7] 102 % of control | [11] 100 % of control

CC1(C(=O)c2ccccc2)CN(C(C)(C)C)C1c1ccccc1 (stereo not drawn)
inactive: dose: 50.0 mg/kg/injection, schedule: Q01DX001 (ip), vehicle: Klucel (hydroxypropylcellulose) (HPC) 97 % of control | dose: 100.0 mg/kg/injection, schedule: Q01DX001 (ip), vehicle: Klucel (hydroxypropylcellulose) (HPC) 95 % of control | dose: 200.0 mg/kg/injection, schedule: Q01DX001 (ip), vehicle: Klucel (hydroxypropylcellulose) (HPC) 94 % of control

Clc1ccc(N=C/C=C/c2ccccc2)cc1
inactive: dose: 25.0 mg/kg/injection, schedule: Q04DX003 (ip), vehicle: other 95 % of control | dose: 50.0 mg/kg/injection, schedule: Q04DX003 (ip), vehicle: other 108 % of control | dose: 100.0 mg/kg/injection, schedule: Q04DX003 (ip), vehicle: other 100 % of control

COc1cc(C)c2ccc3ccccc3c2n1
inactive: dose: 100.0 mg/kg/injection, schedule: Q01DX001 (ip), vehicle: other 93 % of control | dose: 200.0 mg/kg/injection, schedule: Q01DX001 (ip), vehicle: other 95 % of control | dose: 400.0 mg/kg/injection, schedule: Q01DX001 (ip), vehicle: other 97 % of control
